In patent publication US20030186887A1, “Compounds for detection of infection by chlamydophila abortus” (priority 2000, published 2003):
Read-outs that look alike come from different tables or passages of the source. Ends that are not written are not given here. * marks the point of attachment. Biotin = O=C1N[C@H]2[C@H](CS[C@H]2CCCCC(=O)*)N1

What was measured:
[1] = test system: sera from sheep free of infection with C. abortus
Description: In the Applicant's experience at least two different forms of microtitration plates may be used. One form uses tresyl-activated dextran, which is applied to the polystyrene plate and forms a layer between the plate and the peptide (Gregorius et al., 1995). The commercially available plates (‘Aquabind™’) are produced by M&E, Denmark and marketed in the UK through Labsystems by Life Sciences. […] The second form of plate is one modified by coating with streptavidin. Such plates are commercially available e.g. Labsystems, Pierce and Warriner. […] The preferred microtitration plate types used to bind streptavidin are those modified to provide high protein binding e.g. Dynex Immulon 2, Greiner High Bind. To each well is added streptavidin in 150 μl volumes. The plates are incubated, preferably for 2 hours at 35-37° C., then the contents ejected and the plates washed 3 times with PBS buffer, pH 7.4 (Appendix). The plates are thoroughly dried and stored at 4° C. until required. Application of the peptide mixture is performed as follows:
The stock solutions (1 mg per ml) of the selected peptides are diluted in the same volume of carbonate-bicarbonate buffer, pH 9.6, to their optimum concentration. […] The peptide mixture solution is added in volumes of 150 μl per well. In a ‘controlled’ test, the peptide mixture is added to all wells in even numbered columns, while carbonate-bicarbonate buffer is added to all wells in odd-numbered columns in the same volume per well. In ‘screen’ tests, where control wells are not used for each sample, the peptide mixture is added to all 96 wells on the plate. The plates are incubated, preferably at 4° C. for 4 to 12 hours, then washed 4 times with PBS/Tween buffer (Appendix) and thoroughly dried, preferably for 4 hours in a fan-driven cabinet. The coated plates are placed in watertight bags with a desiccant, and the bags sealed and stored at 4° C. until required.
Two dilutions of standard serum are used. One, employed at a dilution of 1 in 1000, is used to indicate successful performance of the test (‘standard positive’). […] In the kits, the positive and cut-off standards are provided pre-diluted to working strength in a proprietary stabilisation buffer (Dako) which contains a preservative (ProClin 300; Supelco; used at 1 in 2000), and are not diluted further before addition to the test plate.
The test serum samples are diluted 1:100 in Serum Conjugate Diluent (Appendix). The test kits provide a Diluter plate, which has very low protein binding properties. By adding 15 μl of serum to 135 μl of Serum Conjugate Diluent on the Diluter plate, an initial 1 in 10 dilution is achieved. Transfer of 15 μl from the Diluter plate to 135 μl of Serum Conjugate Diluent dispensed into each well in the test plate enables a further dilution to 1 in 100 (from the original sample) on the test plate. […] Dilution of sera can also be performed, if preferred, in bijoux or tubes before their addition in 150 μl volumes to the Test plate.
Test and standard sera are incubated on the Test plate for 15 min at room temperature (˜20° C.), then 30 min at 37° C. Plate contents are then ejected and the plate washed 4 times with PBS/Tween (Appendix) and dried.
A probe to detect the presence of immunoglobulin, to which is conjugated an enzyme (the ‘conjugate’), is then added. Preferably, the probe constitutes Protein G (recombinant form, in which the moiety that binds to albumin has been eliminated; available from Sigma and Calbiochem) conjugated with horse radish peroxidase, but many forms of conjugate are available. These include, as probes, Protein A; and monoclonal or polyclonal antibodies against the immunoglobulins of the species providing the test sample.

antibodies to C. abortus = test: ELISA, serological reactivity of biotinylated peptides against serum dilutions (Tables 1 and 2); format: binding, sheep
Method: Application of the peptide mixture is performed as follows:
Two dilutions of standard serum are used.
The data illustrate that the length of compound has a major impact on serological reactivity.
Thus, substitutions within the core epitopes described in this invention are possible without too much loss in compound serological reactivity.

[2] = Solubilisation of compounds; format: physicochemical; settings: water
Method: Each peptide is resuspended in the preferred solvent to a concentration of 1 mg per ml. This stock solution is dispensed in 500 μl volume aliquots in 1 ml bottles, labelled and stored at −85° C. or, less preferably, at −20° C.

[3] = PS (Positive Control Serum) 1/1000
[4] = PS (Positive Control Serum) 1/15000
[5] = serum of Animal No. 13, sheep free of infection with C. abortus
[6] = serum of Animal No. 28, sheep free of infection with C. abortus
[7] = serum of Animal No. 36, sheep free of infection with C. abortus
[8] = serum of Animal No. 19, sheep free of infection with C. abortus
[9] = serum of Animal No. 31, sheep free of infection with C. abortus
[10] = serum of Animal No. 37, sheep free of infection with C. abortus
[11] = serum of Animal No. 14, sheep free of infection with C. abortus

What does the source list for “Biotin-KASSAAFNLVGLIVKGSSIAADQ [Compound 2/L]”?
Net OD [Gross OD - No compound OD] [1, 3]: 1.534; Net OD [Gross OD - No compound OD] [1, 4]: 0.098; Net OD [Gross OD - No compound OD] ([1]; serum of Animal No. 5, sheep free of infection with C. abortus): 0.285; Net OD [Gross OD - No compound OD] [1, 5]: 0.572; Net OD [Gross OD - No compound OD] [1, 6]: 0.389; Net OD [Gross OD - No compound OD] [1, 7]: 0.128; Net Optical Density (antibodies to C. abortus; serum dilution 1/100): 2.629; Net Optical Density (antibodies to C. abortus; serum dilution 1/200): 1.885; Net Optical Density (antibodies to C. abortus; serum dilution 1/400): 1.107; Net Optical Density (antibodies to C. abortus; serum dilution 1/800): 0.544; Net Optical Density (antibodies to C. abortus; serum dilution 1/1600): 0.263; Net Optical Density (antibodies to C. abortus; serum dilution 1/3200): 0.115; Net Optical Density (antibodies to C. abortus; serum dilution 1/6400): 0.056

Which “Net OD [Gross OD - No compound OD]” value [1, 3] does the source give for “Biotin-KKKKKKKGVKGSSIAADQLPN [Compound 2-7]” here?
The value was 1.038.

And the “Net OD [Gross OD - No compound OD]” value [1, 4]?
Its value is 0.059.

What about the “Net OD [Gross OD - No compound OD]” value ([1]; serum of Animal No. 11, sheep free of infection with C. abortus) of the same substance?
The value was 0.607.

And the “Net OD [Gross OD - No compound OD]” value [1, 5]?
Its value is 0.198.

And the “Net OD [Gross OD - No compound OD]” value [1, 8]?
The value was 0.119.

What about the “Net OD [Gross OD - No compound OD]” value ([1]; serum of Animal No. 29, sheep free of infection with C. abortus) of the same substance?
Its value is 0.144.

For “Biotin-KTITGKKKKGTAAANYKTPTD [Compound 1-6]”, which “Net OD [Gross OD - No compound OD]” value [1, 3] is on record?
The value was 3.352.

What about the “Net OD [Gross OD - No compound OD]” value [1, 4] of the same substance?
Its value is 0.354.

And the “Net OD [Gross OD - No compound OD]” value [1, 8]?
The value was 1.316.

What about the “Net OD [Gross OD - No compound OD]” value [1, 6] of the same substance?
The value was 0.114.

And the “Net OD [Gross OD - No compound OD]” value [1, 9]?
Its value is 0.636.

What about the “Net OD [Gross OD - No compound OD]” value [1, 7] of the same substance?
Its value is 0.500.

And the “Net OD [Gross OD - No compound OD]” value [1, 10]?
Its value is 0.344.

Which results are given for “Biotin-KTITGKKVPTGTAAANYKTPT [Compound 1-5]”?
Net OD [Gross OD - No compound OD] [1, 3]: 3.744; Net OD [Gross OD - No compound OD] [1, 4]: 0.452; Net OD [Gross OD - No compound OD] [1, 11]: 0.978; Net OD [Gross OD - No compound OD] [1, 8]: 0.747; Net OD [Gross OD - No compound OD] [1, 6]: 0.352; Net OD [Gross OD - No compound OD] [1, 9]: 0.423; Net OD [Gross OD - No compound OD] [1, 10]: 0.580

For “Biotin-KTITGMGAVPTGTAAANYKT [Compound 1/AX]”, which “Net OD [Gross OD - No compound OD]” value [1, 3] is on record?
The value was 3.690.

And the “Net OD [Gross OD - No compound OD]” value [1, 4]?
Its value is 0.493.

What about the “Net OD [Gross OD - No compound OD]” value [1, 11] of the same substance?
Its value is 0.511.

Which solubility [2] does the source give for GKGSSIAADQNKGSSIAADQ [Compound #2] here?
Its solubility is “soluble in water”.

Which solubility [2] does the source give for SGTAAANYKTKGTAAANYKT [Compound #1] here?
Its solubility is “soluble in water”.
